Source: PubChem BioAssay AID330 (DTP/NCI, 2004)
“And” between values parts separate entries of the source, which are not always exact repeats. Equal entries are not always repeated. Inconclusive results and toxic doses are left out.

System: P388 leukemia ip, CD2F1 mice, survival T/C
Assay: NCI In Vivo Anticancer Drug Screen. Data for tumor model P388 Leukemia (intraperitoneal) in CD2F1 (CDF1) mice
Settings: endpoint: median survival time, higher = longer survival
Procedure, shortened: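 Mice carrying the transplanted tumor received test compound or vehicle. Survival was recorded in each group, and the value is the treated-group measurement divided by that of the vehicle-treated control group.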

[1] = dose: 100.0 mg/kg/injection, schedule: Q01DX009 (ip), vehicle: Klucel (hydroxypropylcellulose) (HPC)
[2] = dose: 200.0 mg/kg/injection, schedule: Q01DX009 (ip), vehicle: Klucel (hydroxypropylcellulose) (HPC)
[3] = dose: 12.5 mg/kg/injection, schedule: Q01DX009 (ip), vehicle: saline
[4] = dose: 25.0 mg/kg/injection, schedule: Q01DX009 (ip), vehicle: saline
[5] = dose: 50.0 mg/kg/injection, schedule: Q01DX009 (ip), vehicle: saline
[6] = dose: 100.0 mg/kg/injection, schedule: Q01DX009 (ip), vehicle: saline
[7] = dose: 200.0 mg/kg/injection, schedule: Q01DX009 (ip), vehicle: saline
[8] = dose: 25.0 mg/kg/injection, schedule: Q01DX005 (ip), vehicle: saline with Tween-80
[9] = dose: 50.0 mg/kg/injection, schedule: Q01DX001 (ip), vehicle: saline with Tween-80
[10] = dose: 50.0 mg/kg/injection, schedule: Q01DX005 (ip), vehicle: saline with Tween-80
[11] = dose: 100.0 mg/kg/injection, schedule: Q01DX001 (ip), vehicle: saline with Tween-80
[12] = dose: 100.0 mg/kg/injection, schedule: Q01DX005 (ip), vehicle: saline with Tween-80
[13] = dose: 200.0 mg/kg/injection, schedule: Q01DX001 (ip), vehicle: saline with Tween-80
[14] = dose: 200.0 mg/kg/injection, schedule: Q01DX005 (ip), vehicle: saline with Tween-80
[15] = dose: 400.0 mg/kg/injection, schedule: Q01DX001 (ip), vehicle: saline with Tween-80
[16] = dose: 6.25 mg/kg/injection, schedule: Q01DX009 (ip), vehicle: saline

CC(C)C(=O)N1CCCCCCN1C(=O)C(C)C
T/C [1]: 107 % of control | T/C [2]: 111 % of control

COc1cccc2c1C(=O)c1c(O)c3c(c(O)c1C2=O)CC(O)(C(=O)CO)CC3OC1CC(NCC2(O)OCC(O)C(O)C2O)C(O)C(C)O1 (stereo not drawn)
T/C (dose: 14.5 mg/kg/injection, schedule: Q04DX003 (ip), vehicle: water): 179 % of control | T/C (dose: 29.0 mg/kg/injection, schedule: Q04DX003 (ip), vehicle: water): 239 % of control | T/C (dose: 58.0 mg/kg/injection, schedule: Q04DX003 (ip), vehicle: water): 116 % of control

c1ccc(CN2CCOC2)cc1
T/C [3]: 108 % of control | T/C [4]: 108 % of control | T/C [5]: 118 % of control and 124 % of control | T/C [6]: 123 % of control | T/C [7]: 116 % of control

c1ccc(C2SCC3(CCCCC3)CS2)cc1
T/C [8]: 98 % of control | T/C [9]: 101 % of control | T/C [10]: 100 % of control | T/C [11]: 101 % of control | T/C [12]: 100 % of control | T/C [13]: 94 % of control | T/C [14]: 98 % of control | T/C [15]: 88 % of control

COc1ccc(-c2cncnc2N)cc1OC
T/C (dose: 50.0 mg/kg/injection, schedule: Q01DX009 (ip), vehicle: Klucel (hydroxypropylcellulose) (HPC)): 95 % of control | T/C [1]: 97 % of control | T/C [2]: 89 % of control

CC(=O)N(C)OS(=O)(=O)c1ccc(C)cc1
T/C [9]: 102 % of control | T/C [11]: 105 % of control | T/C [13]: 105 % of control | T/C [15]: 95 % of control

O=C(CCCN1CCC(C(=O)c2ccc(Cl)cc2)CC1)c1ccc(F)cc1
T/C (dose: 3.0 mg/kg/injection, schedule: Q01DX009 (ip), vehicle: Klucel (hydroxypropylcellulose) (HPC)): 99 % of control | T/C (dose: 6.0 mg/kg/injection, schedule: Q01DX009 (ip), vehicle: Klucel (hydroxypropylcellulose) (HPC)): 97 % of control | T/C (dose: 12.0 mg/kg/injection, schedule: Q01DX009 (ip), vehicle: Klucel (hydroxypropylcellulose) (HPC)): 108 % of control

COc1ccc(C2NC(c3ccc(OC)cc3)C3CCCC2C3=O)cc1 (stereo not drawn)
T/C (dose: 100.0 mg/kg/injection, schedule: Q04DX003 (ip), vehicle: saline): 102 % of control | T/C (dose: 200.0 mg/kg/injection, schedule: Q04DX003 (ip), vehicle: saline): 93 % of control | T/C (dose: 400.0 mg/kg/injection, schedule: Q04DX003 (ip), vehicle: saline): 98 % of control

O=C(Nc1ccccc1)C1(C(=O)Nc2ccccc2)SSC(C(=O)Nc2ccccc2)(C(=O)Nc2ccccc2)SS1
T/C [10]: 107 % of control | T/C [12]: 96 % of control | T/C [14]: 89 % of control

Cc1ccc(NC(=O)c2cc3ccccc3cc2O)c(C)c1.Cc1ccc(NC(=O)c2cc3ccccc3cc2O)c(C)c1.[Fe+2]
T/C [5]: 92 % of control | T/C [6]: 104 % of control | T/C [7]: 90 % of control

Cn1ncc2c(NCCc3ccccc3)ncnc21
T/C (dose: 100.0 mg/kg/injection, schedule: Q04DX003 (ip), vehicle: saline with Tween-80): 109 % of control

CS(=O)(=O)OCC(Cc1ccccc1)N1C(=O)c2ccccc2C1=O (stereo not drawn)
T/C [11]: 101 % of control | T/C [13]: 100 % of control | T/C [15]: 89 % of control

COc1ccccc1-n1c(C)nc2c(cnn2C)c1=O
T/C (dose: 50.0 mg/kg/injection, schedule: Q01DX005 (ip), vehicle: Klucel (hydroxypropylcellulose) (HPC)): 100 % of control | T/C (dose: 100.0 mg/kg/injection, schedule: Q01DX005 (ip), vehicle: Klucel (hydroxypropylcellulose) (HPC)): 100 % of control | T/C (dose: 200.0 mg/kg/injection, schedule: Q01DX005 (ip), vehicle: Klucel (hydroxypropylcellulose) (HPC)): 103 % of control

N=C(N)c1ccc(Oc2ccc(Oc3ccc(C(=N)N)cc3)cc2)cc1
T/C (dose: 3.13 mg/kg/injection, schedule: Q01DX009 (ip), vehicle: saline with Tween-80): 109 % of control | T/C (dose: 3.13 mg/kg/injection, schedule: Q01DX009 (ip), vehicle: saline): 102 % of control | T/C (dose: 6.25 mg/kg/injection, schedule: Q01DX009 (ip), vehicle: saline with Tween-80): 109 % of control | T/C [16]: 113 % of control | T/C (dose: 12.5 mg/kg/injection, schedule: Q01DX009 (ip), vehicle: saline with Tween-80): 124 % of control

CC1CCCN2C(=O)CN(CCc3ccccc3)CC(=O)N12 (stereo not drawn)
T/C [10]: 99 % of control | T/C [12]: 100 % of control | T/C [14]: 100 % of control

NS(=O)(=O)OCCCCCCCOS(N)(=O)=O
T/C (dose: 6.0 mg/kg/injection, schedule: Q01DX005 (iv), vehicle: other): 109 % of control | T/C (dose: 6.7 mg/kg/injection, schedule: Q04DX003 (ip), vehicle: other): 121 % of control | T/C (dose: 8.98 mg/kg/injection, schedule: Q01DX005 (ip), vehicle: other): 122 % of control | T/C (dose: 8.98 mg/kg/injection, schedule: Q01DX005 (iv), vehicle: other): 112 % of control | T/C (dose: 10.0 mg/kg/injection, schedule: Q04DX003 (ip), vehicle: other): 119 % of control | T/C (dose: 11.0 mg/kg/injection, schedule: Q03HX009 (ip), vehicle: other): 160 % of control | T/C (dose: 13.4 mg/kg/injection, schedule: Q01DX005 (iv), vehicle: other): 118 % of control | T/C (dose: 16.5 mg/kg/injection, schedule: Q03HX009 (ip), vehicle: other): 171 % of control | T/C (dose: 16.67 mg/kg/injection, schedule: Q01DX009 (ip), vehicle: other): 168 % of control | T/C (dose: 20.0 mg/kg/injection, schedule: Q01DX001 (iv), vehicle: other): 105 % of control | T/C (dose: 20.0 mg/kg/injection, schedule: Q01DX005 (ip), vehicle: other): 150 % of control and 159 % of control | T/C (dose: 22.5 mg/kg/injection, schedule: Q03HX003 (ip), vehicle: other): 158 % of control | T/C (dose: 24.9 mg/kg/injection, schedule: Q01DX009 (ip), vehicle: other): 184 % of control | T/C [8]: 152 % of control and 163 % of control | T/C (dose: 25.0 mg/kg/injection, schedule: Q03HX009 (ip), vehicle: other): 206 % of control | T/C (dose: 30.0 mg/kg/injection, schedule: Q01DX001 (ip), vehicle: other): 124 % of control | T/C (dose: 30.0 mg/kg/injection, schedule: Q01DX001 (iv), vehicle: other): 111 % of control | T/C (dose: 30.0 mg/kg/injection, schedule: Q01DX005 (ip), vehicle: other): 161 % of control and 181 % of control | T/C (dose: 33.3 mg/kg/injection, schedule: Q04DX003 (ip), vehicle: other): 164 % of control | T/C (dose: 34.0 mg/kg/injection, schedule: Q03HX003 (ip), vehicle: other): 174 % of control | T/C (dose: 37.0 mg/kg/injection, schedule: Q03HX009 (ip), vehicle: other): 232 % of control | T/C (dose: 37.2 mg/kg/injection, schedule: Q01DX009 (ip), vehicle: other): 222 % of control | T/C (dose: 37.2 mg/kg/injection, schedule: Q01DX009 (oral), vehicle: other): 124 % of control | T/C (dose: 44.0 mg/kg/injection, schedule: Q01DX005 (ip), vehicle: other): 192 % of control | T/C (dose: 44.89 mg/kg/injection, schedule: Q01DX005 (ip), vehicle: other): 194 % of control | T/C (dose: 44.9 mg/kg/injection, schedule: Q01DX001 (iv), vehicle: other): 112 % of control | T/C (dose: 50.0 mg/kg/injection, schedule: Q03HX003 (ip), vehicle: other): 210 % of control | T/C (dose: 50.0 mg/kg/injection, schedule: Q04DX003 (ip), vehicle: other): 185 % of control | T/C (dose: 55.6 mg/kg/injection, schedule: Q01DX009 (ip), vehicle: other): 123 % of control | T/C (dose: 67.0 mg/kg/injection, schedule: Q01DX001 (ip), vehicle: other): 151 % of control | T/C (dose: 74.8 mg/kg/injection, schedule: Q04DX003 (ip), vehicle: other): 212 % of control | T/C (dose: 82.9 mg/kg/injection, schedule: Q01DX009 (oral), vehicle: other): 109 % of control | T/C (dose: 100.0 mg/kg/injection, schedule: Q01DX001 (ip), vehicle: other): 164 % of control | T/C (dose: 111.6 mg/kg/injection, schedule: Q04DX003 (ip), vehicle: other): 210 % of control | T/C (dose: 125.0 mg/kg/injection, schedule: Q01DX005 (ip), vehicle: saline with Tween-80): 156 % of control | T/C (dose: 150.0 mg/kg/injection, schedule: Q01DX001 (ip), vehicle: other): 205 % of control | T/C [14]: 117 % of control

c1ccc(CSc2ncnc3n[nH]nc23)cc1
T/C (dose: 3.12 mg/kg/injection, schedule: Q01DX009 (ip), vehicle: saline): 100 % of control | T/C [16]: 106 % of control | T/C [3]: 104 % of control | T/C [4]: 100 % of control
